The assay relates to human sebocytes. Put plainly: Sebum suppression: 14C-acetate label remaining in cultured human sebocytes. The class given is cell-based. As to conditions: for sebum suppressive activity in the presence of a retinoid / combined with retinol: summary in words, combined with retinol versus compound alone; for activity at 1 µM / activity at 10 µM / activity at 0.1 µM / activity at 50 µM / activity at 28 µM / activity at 280 µM: Homo sapiens; for activity at 1 µM / activity at 10 µM / activity at 0.1 µM / activity at 50 µM: read-out: % of Control.

Setting [1] is: Experiment A, 1 μM test compound + 1 μM Retinol.
Setting [2] is: Experiment A, 1 μM test compound + 10 μM Retinol.
The mark [3] stands for this setting: Experiment A, 1 μM test compound alone.
[4] abbreviates: Experiment A, 10 μM test compound + 1 μM Retinol.
[5] abbreviates: Experiment A, 10 μM test compound + 10 μM Retinol.
[6] abbreviates: Experiment A, 10 μM test compound alone.
Where [7] appears, read: Experiment B, 0.1 μM test compound + 1 μM Retinol.
Where [8] appears, read: Experiment B, 0.1 μM test compound + 10 μM Retinol.
Setting [9] is: Experiment B, 0.1 μM test compound alone.
The mark [10] stands for this setting: Experiment B, 1 μM test compound + 1 μM Retinol.
[11] abbreviates: Experiment B, 1 μM test compound + 10 μM Retinol.
Setting [12] is: Experiment B, 1 μM test compound alone.
[13] abbreviates: Experiment B, 10 μM test compound + 1 μM Retinol.
Setting [14] is: Experiment B, 10 μM test compound + 10 μM Retinol.
Setting [15] is: Experiment B, 10 μM test compound alone.
[16] abbreviates: Experiment A, 28 μM Phenol Red (positive control).
Setting [17] is: Experiment B, 280 μM Phenol Red (positive control).

Several values for one entry are separate records, joined by “and”; a condition that tells them apart may be missing. Equal values may be shown once. Read-outs that look alike come from different tables or passages of the source.

On to `CCOC(=O)c1ccc(NC(=O)Nc2ccc(O)cc2)cc1` [Compound F], for which the “sebum suppressive activity in the presence of a retinoid / combined with retinol” value is listed as “improved sebum suppressive activity”. The “% of Control” value under setting [1] was found to be 67.3%. The “% of Control” value under setting [2] was found to be 65.8%. Also, under setting [3], the “% of Control” value stood at 84.7%. Under setting [4], the “% of Control” value is on record as 66.2%. For the same compound, the “% of Control” value under setting [5] turned out to be 53.7%. In addition, the “% of Control” value under setting [6] is on record as 82.7%.

Take `CC(CCC(=O)N1CCN(c2ccccc2)CC1)C1CCC2=C3CCC4CC(O)CCC4(C)C3CC(O)C21C` (centres unmarked) [Compound B]: the activity at 1 µM by setting is: under setting [1], 80%; under setting [2], 66.2%; under setting [3], 88.1%; under setting [10], 69.1%; under setting [11], 69.9%; under setting [12], 68%. Further, the activity at 10 µM under setting [4] was 8.7%; the activity at 10 µM under setting [5] amounted to 7.2%; the activity at 10 µM under setting [6] stood at 25.6%; the activity at 10 µM under setting [13] was 0.3%; the activity at 10 µM under setting [14] came to 0.3%; the activity at 10 µM under setting [15] amounted to 0.3%. For the same compound, the activity at 0.1 µM stood at 81.7% under setting [7], 84.8% under setting [8] and 87.9% under setting [9].

`Cc1cccc(O)c1NC(=O)OC1CC(C)CCC1C(C)C` (centres unmarked) [Compound C]: the activity at 1 µM by setting is: under setting [2], 66.5%; under setting [3], 70.1%; under setting [10], 78.2%; under setting [11], 68.8%; under setting [12], 75.3%. Moreover, the activity at 10 µM under setting [5] came out at 0.2%; the activity at 10 µM under setting [6] came to 0.2%; the activity at 10 µM under setting [13] was found to be 0.4%; the activity at 10 µM under setting [14] amounted to 0.4%; the activity at 10 µM under setting [15] was found to be 0.4%. Also, the activity at 0.1 µM reads like this: under setting [7], 94%; under setting [8], 88.6%; under setting [9], 97.9%.

As for `Cc1cccc(N2CCN(C(=O)CC3C=CC(CC(=O)N4CCN(c5cccc(C)c5)C(C)C4)C3)CC2C)c1` (centres unmarked) [Compound G], the “sebum suppressive activity in the presence of a retinoid / combined with retinol” value is “improved sebum suppressive activity”. Further, the activity at 10 µM (96 Well Plate, 10 μM test compound + 1 μM Retinol) came to 70.3%. For the same compound, the activity at 10 µM (96 Well Plate, 10 μM test compound alone) came to 102%. Also, the activity at 50 µM (96 Well Plate, 50 μM test compound + 1 μM Retinol) was determined as 3.3%. The activity at 50 µM (96 Well Plate, 50 μM test compound alone) was 25.5%.

As for `CC(CCC(=O)NC(=O)Nc1ccccc1Sc1ccccc1CO)C1CCC2=C3CCC4CC(O)CCC4(C)C3CC(O)C21C` (centres unmarked) [Compound A], the activity at 1 µM runs as follows: under setting [1], 68.5%; under setting [2], 64.8%; under setting [3], 68.5%; under setting [10], 77.4%; under setting [11], 73.9%; under setting [12], 76.1%. The activity at 10 µM reads like this: under setting [4], 73.4%; under setting [5], 60.8%; under setting [6], 71%; under setting [13], 62.7%; under setting [14], 64.6%; under setting [15], 70.2%. Also, the activity at 0.1 µM amounted to 88.8% under setting [7], 84.2% under setting [8] and 84.5% under setting [9].

Take `O=C(Nc1ccc(O)cc1)Nc1cccc(C(F)(F)F)c1` [Compound E]: the “sebum suppressive activity in the presence of a retinoid / combined with retinol” value is listed as “improved sebum suppressive activity”. Under setting [1], the activity at 1 µM came out at 75.1%. Besides, the activity at 1 µM under setting [2] was 46.4%. In addition, the activity at 1 µM under setting [3] worked out at 66.4%. For the same compound, the activity at 10 µM under setting [4] is 32%. Further, the activity at 10 µM under setting [5] was found to be 2.3%. For the same compound, the activity at 10 µM under setting [6] turned out to be 50%. In addition, the activity at 1 µM under setting [10] came out at 67.2%. Moreover, the activity at 1 µM under setting [11] was determined as 54.2%. In addition, the activity at 1 µM under setting [12] was 97.3%. In addition, the activity at 10 µM under setting [13] came to 49.8%. For the same compound, the activity at 10 µM under setting [14] amounted to 2.1%. Also, the activity at 10 µM under setting [15] is 66.4%.

With `O=S1(=O)OC(c2ccc(O)cc2)(c2ccc(O)cc2)c2ccccc21` [Phenol Red, phenol red, reference compound], the “% of Control” value was 95.3% under setting [16]; 46.5% and 52.2% and 54.9% and 56.8% under setting [17]. Moreover, the activity at 28 µM runs as follows: under setting [16], 75.5%; (Experiment B, 28 μM Phenol Red (positive control)) 86.4%. Further, the activity at 280 µM is, setting by setting: (Experiment A, 280 μM Phenol Red (positive control)) 15.9%; under setting [17], 52.5%; (Table 7, 280 μM Phenol Red (positive control)) 13.2%.

For the compound `CC1=C(/C=C/C(C)=C/C=C/C(C)=C/CO)C(C)(C)CCC1` [Retinol, retinol, reference compound], the activity at 10 µM amounted to 105% (Experiment A, 10 μM Retinol alone); 106% (Experiment B, 10 μM Retinol alone); 106% (Table 7, 10 μM Retinol alone). Moreover, the activity at 1 µM by setting is: (Experiment B, 1 μM Retinol alone) 98.1%; (Table 7, 1 μM Retinol alone) 98.1%.

Values taken from US20020028224A1, “Cosmetic compositions containing substituted amide derivatives” (Unilever Home & Personal Care USA, Division of Conopco, Inc., priority 2000, published 2002).
